Laboratory results published in patent publication US11053226B2, “KRAS G12C inhibitors and methods of using the same” (Amgen Inc., priority 2018, dated 2021).
Where two headings read alike, the source gives them in different places.

Biological target: GDP-bound KRAS protein (aa 1-169), containing both G12C and C118A amino acid substitutions (Homo sapiens (Human), UniProt P01116, C118A/G12C)
Test: Coupled Nucleotide Exchange Assay
Assay type: biochemical
Method: For compounds in Table 9, the following assay conditions were employed:
Coupled Nucleotide Exchange Assay:
The assay plates were then read on a PerkinElmer EnVision Multilabel Reader, using AlphaScreen® technology, and data were analyzed using a 4-parameter logistic model to calculate IC50 values.

[1] = read-out: Coupled Exchange IC50 (2 h), 2 h compound pre-incubation
[2] = read-out: Coupled Exchange IC50 (20 h), 20 h compound pre-incubation
[3] = first Coupled Exchange column, compound pre-incubation probably 5 min (rest of head not shown; b435 lists 5 min, 2 hours or 20 hours), read-out: Coupled Exchange IC50
[4] = third Coupled Exchange column, compound pre-incubation probably 20 hours (rest of head not shown; b435 lists 5 min, 2 hours or 20 hours), read-out: Coupled Exchange IC50
[5] = second Coupled Exchange column, read-out: Coupled Exchange IC50

GDP-bound KRAS protein (aa 1-169), containing both G12C and C118A amino acid substitutions, sequence (P01116 other isoform, or with tags, fused parts or gaps G12C/C118A): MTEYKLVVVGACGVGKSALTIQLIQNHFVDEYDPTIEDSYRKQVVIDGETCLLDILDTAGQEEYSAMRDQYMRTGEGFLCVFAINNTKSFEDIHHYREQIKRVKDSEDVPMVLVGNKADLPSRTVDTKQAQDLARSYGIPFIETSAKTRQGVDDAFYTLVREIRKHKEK

Compound	IC50 [1] [µM]	IC50 [2] [µM]	other results
C=CC(=O)N1CC(NC(=O)Cn2ccc3ccc(Cl)cc32)C1 [Example 202]	> 250	> 250	–
C=CC(=O)N1CC(NC(=O)Cn2c(-c3ncccn3)cc3cc(Cl)ccc32)C1 [Example 196]	45.6	6.09	–
C=CC(=O)N1CC(NC(=O)Cn2ccc3ccc(Br)cc32)C1 [Example 182]	> 250	> 250	–
C=CC(=O)N1CC(NC(=O)Cn2cc(C#N)c3cc(Br)ccc32)C1 [Example 211]	22.9	5.2	–
C=CC(=O)N1CC(n2nncc2Cn2ccc3cc(Br)ccc32)C1 [Example 359]	–	–	IC50 [3]: > 250 µM; IC50 [4]: 7.66 µM
C=CC(=O)N1CC(CO)(NC(=O)Cn2ccc3cc(Br)ccc32)C1 [Example 353]	–	–	IC50 [3]: 182 µM; IC50 [4]: 92.6 µM
C=CC(=O)N1CC(NC(=O)Cn2cc(-c3cccc(-c4ccccc4)c3)c3cc(Br)cc(C)c32)C1 [Example 265]	> 250	3.24	–
C=CC(=O)N1CC(NC(=O)Cn2cc(CC(=O)N3CC4CCC3C4)c3cc(Br)ccc32)C1 (stereo not drawn) [Example 333]	–	–	IC50 [3]: 80.1 µM
C=CC(=O)N1CC(NC(=O)Cn2cc(-c3c(C)ccc4cn[nH]c34)c3cc(-c4c(C)ccc5cn[nH]c45)ccc32)C1 [Example 205]	80.5	11.4	–
C=CC(=O)N1CC(NC(=O)Cn2c3c(c4cc(Br)ccc42)CN(C(C)=O)CC3)C1 [Example 251]	> 250	7.91	–
C=CC(=O)N1CC(NC(=O)Cn2ccc3cc(F)ccc32)C1 [Example 198]	> 250	> 250	–
C=CC(=O)N1CC(NC(=O)Cn2c(C)c(CN3CCN(c4ccc(C#N)cn4)CC3)c3cc(Br)ccc32)C1 [Example 315]	–	–	IC50 [5]: 6.22 µM
C=CC(=O)N1CC(NC(=O)Cn2cc(-c3ccc4ccccc4c3)c3cc(-c4ccc5ccccc5c4)cc(C)c32)C1 [Example 263]	> 250	16.3	–
C=CC(=O)N1CC(NC(=O)Cn2cc(CC(=O)N3CCc4ccc(C(=O)O)cc4C3)c3cc(Br)ccc32)C1 [Example 330]	–	–	IC50 [3]: 36.6 µM
C=CC(=O)N1CC(NC(=O)Cn2c(C)c(-c3cnccc3C3=CCCCC3)c3cc(Cl)cc(C)c32)C1 [Example 335]	–	–	IC50 [3]: 0.8 µM
C=CC(=O)N1CC(NC(=O)Cn2cc(-c3cnn(C)c3)c3cc(Cl)ccc32)C1 [Example 197]	24.5	5.51	–
C=CC(=O)N1CC(NC(=O)Cn2c3c(c4cc(Br)ccc42)CCN(C(=O)OCc2ccccc2)C3)C1 [Example 227]	12.3	2.61	–
C=CC(=O)N1CC(NC(=O)Cn2cc(CC(=O)N3CCc4cn[nH]c4C3)c3cc(Br)ccc32)C1 [Example 332]	–	–	IC50 [3]: 43.3 µM
C=CC(=O)N1CC(NC(=O)Cn2cc(C(C)(O)C(=O)NCc3ccccc3)c3cc(Br)ccc32)C1 (stereo not drawn) [Example 253]	19.4	2.31	–
C=CC(=O)N1CC(NC(=O)Cn2ccc3c(F)c(Br)ccc32)C1 [Example 255]	> 250	4.89	–
C=CC(=O)N1CC(NC(=O)Cn2cc(I)c3ccccc32)C1 [Example 212]	27.4	6.8	IC50 (read-out: Coupled Exchange IC50 (5 min), 5 min compound pre-incubation): > 250 µM
C=CC(=O)N1CC(NC(=O)Cn2c3ccc(Br)cc3c3ccc(Cl)nc32)C1 [Example 218]	> 250	> 250	–
C=CC(=O)N1CC(NC(=O)Cn2cc(-c3cccc(C#N)c3)c3cc(Br)ccc32)C1 [Example 216]	12.9	3	–
C=CC(=O)N1CC(NC(=O)Cn2cc(CC(=O)N3CCC(c4ncc[nH]4)CC3)c3cc(Br)ccc32)C1 [Example 327]	–	–	IC50 [3]: 45.9 µM
C=CC(=O)N1CC(N(C)C(=O)Cn2ccc3cc(Br)cc(C)c32)C1 [Example 351]	–	–	IC50 [3]: > 250 µM; IC50 [4]: 3.32 µM
C=CC(=O)N1CC(NC(=O)Cn2c(C(=O)NCCc3ccccc3)cc3cc(Br)ccc32)C1 [Example 189]	15.6	1.62	–
C=CC(=O)N1CC(NC(=O)Cn2ccc3c(Cl)c(Cl)ccc32)C1 [Example 317]	–	–	IC50 [5]: 15.5 µM
